Results reported in patent publication US11053204B2, “Pyrimidinyloxy benzene derivatives as herbicides” (FMC Corporation, priority 2015, dated 2021).

Columns and labels:
Assay in all cases: Test C preemergence, plant response rating
Format in all cases: in vivo
[1] = tested on: pigweed (Amaranthus retroflexus); settings: Preemergence
[2] = tested on: ragweed (common ragweed, Ambrosia elatior); settings: Ambrosia artemisiifolia, pre-emergence, Preemergence
From the text: (§1) Seeds of plant species selected from blackgrass (Alopecurus myosuroides), ryegrass, Italian (Italian ryegrass, Lolium multiflorum), wheat (winter wheat, Triticum aestivum), galium (catchweed bedstraw, Galium aparine), corn (Zea mays), crabgrass, large (large crabgrass, Digitaria sanguinalis), foxtail, giant (giant foxtail, Setaria faberii), johnsongrass (Sorghum halepense), lambsquarters (Chenopodium album), morningglory (Ipomoea coccinea), nutsedge, yellow (yellow nutsedge, Cyperus esculentus), pigweed (Amaranthus retroflexus), ragweed (common ragweed, Ambrosia elatior), soybean (Glycine max), barnyardgrass (Echinochloa crus-galli), oilseed rape (Brassica napus), pigweed, palmer (palmer pigweed, Amaranthus palmeri), waterhemp (common waterhemp, Amaranthus rudis), velvetleaf (Abutilon theophrasti), kochia (Kochia scoparia), surinam grass (Brachiaria decumbens), nightshade (eastern black nightshade, Solanum ptycanthum), wild poinsettia (Euphorbia heterophylla), windgrass (Apera spica-venti), and oat, wild (wild oat Avena fatua), were planted into a blend of loam soil and sand or a silt loam soil and treated preemergence with test chemicals formulated in a non-phytotoxic solvent mixture which included a surfactant.
(§2) At the same time, plants selected from these crop and weed species and also chickweed (common chickweed, Stellaria media), buckwheat, wild (wild buckwheat, Polygonum convolvulus), wild mustard (Sinapis arvensis), field poppy (Papaver rhoeas), field violet (Viola arvensis), geranium, cutleaf (cutleaf geranium, Geranium dissectum), Canada thistle (Cirsium arvense), and speedwell (bird's-eye speedwell, Veronica persica), were planted in pots containing Sunshine Redi-Earth® planting medium comprising spaghnum peat moss, vermiculite, starter nutrients and dolomitic limestone and treated with postemergence applications of test chemicals formulated in the same manner. Plants ranged in height from 2 to 18 cm (1- to 4-leaf stage) for postemergence treatments. Treated plants and controls were maintained in a greenhouse for 13 to 15 d, after which time all species were compared to controls and visually evaluated. Plant response ratings, summarized in Table C, are based on a scale of 0 to 100 where 0 is no effect and 100 is complete control. A dash (-) response means no test result.

[3] = tested on: nutsedge, yellow (yellow nutsedge, Cyperus esculentus); settings: Cyperus, pre-emergence, Preemergence
From the text: as §1, §2

[4] = tested on: foxtail, giant (giant foxtail, Setaria faberii); settings: Setaria faberi, pre-emergence, Preemergence
From the text: as §1, §2

[5] = tested on: velvetleaf (Abutilon theophrasti); settings: Abutilon theophrasti, pre-emergence, Preemergence
From the text: as §1, §2

[6] = tested on: oilseed rape (Brassica napus); settings: Brassica napus, pre-emergence, Preemergence
From the text: as §1, §2

corn (Zea mays) = settings: Zea mays, pre-emergence, Preemergence
From the text: as §1, §2

[7] = tested on: lambsquarters (Chenopodium album); settings: Chenopodium album, pre-emergence, Preemergence
From the text: as §1, §2

[8] = tested on: wheat (winter wheat, Triticum aestivum); settings: Triticum aestivum, pre-emergence, Preemergence
From the text: as §1, §2

[9] = tested on: waterhemp (common waterhemp, Amaranthus rudis); settings: Amaranthus tuberculatus, pre-emergence, Preemergence
From the text: as §1, §2

[10] = tested on: ryegrass, Italian (Italian ryegrass, Lolium multiflorum); settings: Lolium multiflorum, pre-emergence, Preemergence
From the text: as §1, §2

[11] = tested on: morningglory (Ipomoea coccinea); settings: Ipomoea, pre-emergence, Preemergence
From the text: as §1, §2

[12] = tested on: blackgrass (Alopecurus myosuroides); settings: Alopecurus myosuroides, pre-emergence, Preemergence
From the text: as §1, §2

soybean (Glycine max) = settings: Glycine max, pre-emergence, Preemergence
From the text: as §1, §2

[13] = tested on: crabgrass, large (large crabgrass, Digitaria sanguinalis); settings: Digitaria sanguinalis, pre-emergence, Preemergence
From the text: as §1, §2

O=C(OCCC(F)(F)F)c1c(Cl)cccc1Oc1ncc(Cl)cn1 [Compound 15, 3,3,3-trifluoropropyl 2-chloro-6-[(5-chloro-2-pyrimidinyl)oxy]benzoate]
Plant response rating, Pigweed ([1]; 125 g ai/ha, scale of 0 to 100): 100 | Plant response rating, Pigweed ([1]; 16 g ai/ha, scale 0 to 100): 98 | Plant response rating, Pigweed ([1]; 31 g ai/ha, scale 0 to 100): 100 | Plant response rating, Pigweed ([1]; 62 g ai/ha, scale 0 to 100): 100 | pest or weed control at 125 g/ha ([2]; 125 g ai/ha, scale of 0 to 100): 20% | pest or weed control at 16 g/ha ([2]; 16 g ai/ha, scale 0 to 100): 10% | pest or weed control at 31 g/ha ([2]; 31 g ai/ha, scale 0 to 100): 10% | pest or weed control at 62 g/ha ([2]; 62 g ai/ha, scale 0 to 100): 30% | pest or weed control at 125 g/ha ([3]; 125 g ai/ha, scale of 0 to 100): 50% | pest or weed control at 16 g/ha ([3]; 16 g ai/ha, scale 0 to 100): 0% | pest or weed control at 31 g/ha ([3]; 31 g ai/ha, scale 0 to 100): 0% | pest or weed control at 62 g/ha ([3]; 62 g ai/ha, scale 0 to 100): 5% | pest or weed control at 62 g/ha ([4]; 62 g ai/ha, scale of 0 to 100): 100% | pest or weed control at 125 g/ha ([4]; 125 g ai/ha, scale of 0 to 100): 100% | pest or weed control at 16 g/ha ([4]; 16 g ai/ha, scale 0 to 100): 100% | pest or weed control at 31 g/ha ([4]; 31 g ai/ha, scale 0 to 100): 100% | pest or weed control at 125 g/ha ([5]; 125 g ai/ha, scale of 0 to 100): 100% | pest or weed control at 16 g/ha ([5]; 16 g ai/ha, scale 0 to 100): 60% | pest or weed control at 31 g/ha ([5]; 31 g ai/ha, scale 0 to 100): 85% | pest or weed control at 62 g/ha ([5]; 62 g ai/ha, scale 0 to 100): 100% | plant injury at 125 g/ha ([6]; 125 g ai/ha, scale of 0 to 100): 100% | plant injury at 16 g/ha ([6]; 16 g ai/ha, scale 0 to 100): 30% | plant injury at 31 g/ha ([6]; 31 g ai/ha, scale 0 to 100): 100% | plant injury at 62 g/ha ([6]; 62 g ai/ha, scale 0 to 100): 100% | Corn plant response rating (crop injury, 0 = no effect, 100 = complete kill) at 62 g/ha (corn (Zea mays); 62 g ai/ha, scale of 0 to 100): 10% | Corn plant response rating (crop injury, 0 = no effect, 100 = complete kill) at 125 g/ha (corn (Zea mays); 125 g ai/ha, scale of 0 to 100): 25% | Corn plant response rating (crop injury, 0 = no effect, 100 = complete kill) at 16 g/ha (corn (Zea mays); 16 g ai/ha, scale 0 to 100): 0% | Corn plant response rating (crop injury, 0 = no effect, 100 = complete kill) at 31 g/ha (corn (Zea mays); 31 g ai/ha, scale 0 to 100): 0% | pest or weed control at 125 g/ha ([7]; 125 g ai/ha, scale of 0 to 100): 95% | pest or weed control at 16 g/ha ([7]; 16 g ai/ha, scale 0 to 100): 60% | pest or weed control at 31 g/ha ([7]; 31 g ai/ha, scale 0 to 100): 70% | pest or weed control at 62 g/ha ([7]; 62 g ai/ha, scale 0 to 100): 85% | plant injury at 125 g/ha ([8]; 125 g ai/ha, scale of 0 to 100): 5% | plant injury at 16 g/ha ([8]; 16 g ai/ha, scale 0 to 100): 0% | plant injury at 31 g/ha ([8]; 31 g ai/ha, scale 0 to 100): 0% | plant injury at 62 g/ha ([8]; 62 g ai/ha, scale 0 to 100): 0% | pest or weed control at 125 g/ha ([9]; 125 g ai/ha, scale of 0 to 100): 100% | pest or weed control at 16 g/ha ([9]; 16 g ai/ha, scale 0 to 100): 90% | pest or weed control at 31 g/ha ([9]; 31 g ai/ha, scale 0 to 100): 100% | pest or weed control at 62 g/ha ([9]; 62 g ai/ha, scale 0 to 100): 100% | pest or weed control at 125 g/ha ([10]; 125 g ai/ha, scale of 0 to 100): 50% | pest or weed control at 16 g/ha ([10]; 16 g ai/ha, scale 0 to 100): 0% | pest or weed control at 31 g/ha ([10]; 31 g ai/ha, scale 0 to 100): 5% | pest or weed control at 62 g/ha ([10]; 62 g ai/ha, scale 0 to 100): 15% | pest or weed control at 125 g/ha ([11]; 125 g ai/ha, scale of 0 to 100): 60% | pest or weed control at 16 g/ha ([11]; 16 g ai/ha, scale 0 to 100): 20% | pest or weed control at 31 g/ha ([11]; 31 g ai/ha, scale 0 to 100): 20% | pest or weed control at 62 g/ha ([11]; 62 g ai/ha, scale 0 to 100): 35% | pest or weed control at 62 g/ha ([12]; 62 g ai/ha, scale of 0 to 100): 50% | pest or weed control at 125 g/ha ([12]; 125 g ai/ha, scale of 0 to 100): 80% | pest or weed control at 16 g/ha ([12]; 16 g ai/ha, scale 0 to 100): 0% | pest or weed control at 31 g/ha ([12]; 31 g ai/ha, scale 0 to 100): 0% | plant injury at 125 g/ha (soybean (Glycine max); 125 g ai/ha, scale of 0 to 100): 55% | plant injury at 16 g/ha (soybean (Glycine max); 16 g ai/ha, scale 0 to 100): 0% | plant injury at 31 g/ha (soybean (Glycine max); 31 g ai/ha, scale 0 to 100): 10% | plant injury at 62 g/ha (soybean (Glycine max); 62 g ai/ha, scale 0 to 100): 40% | pest or weed control at 62 g/ha ([13]; 62 g ai/ha, scale of 0 to 100): 100% | pest or weed control at 125 g/ha ([13]; 125 g ai/ha, scale of 0 to 100): 100% | pest or weed control at 16 g/ha ([13]; 16 g ai/ha, scale 0 to 100): 95% | pest or weed control at 31 g/ha ([13]; 31 g ai/ha, scale 0 to 100): 100%
